Source: the NIST ThermoML archive (doi:10.1021/je900615b)
Where “and” joins values, the source holds several entries; their conditions need not be identical. Identical values can stand only once.

Conditions: Liquid, Hot wire method

CC(C)OC(C)C [diisopropyl ether]
Conditions | thermal conductivity
235.46 K, 100 kPa | 0.1259 W/m/K
235.54 K, 100 kPa | 0.1258 W/m/K
236.06 K, 100 kPa | 0.1259 W/m/K
236.15 K, 30600 kPa | 0.1369 W/m/K
236.25 K, 5000 kPa | 0.128 W/m/K
236.29 K, 10100 kPa | 0.13 W/m/K
236.33 K, 5000 kPa | 0.1275 W/m/K
236.44 K, 20200 kPa | 0.1331 W/m/K
236.45 K, 20300 kPa | 0.1337 W/m/K
236.53 K, 29900 kPa | 0.1364 W/m/K
236.67 K, 5000 kPa | 0.1277 W/m/K
236.7 K, 10200 kPa | 0.1305 W/m/K
236.8 K, 20300 kPa | 0.1337 W/m/K
236.92 K, 30000 kPa | 0.1363 W/m/K
237.15 K, 10200 kPa | 0.1302 W/m/K
254.4 K, 20400 kPa | 0.1276 W/m/K
254.47 K, 30400 kPa | 0.1314 W/m/K
254.66 K, 5100 kPa | 0.122 W/m/K
254.73 K, 100 kPa | 0.1201 W/m/K
254.74 K, 10000 kPa | 0.1238 W/m/K
254.76 K, 29500 kPa | 0.1312 W/m/K
254.86 K, 10200 kPa | 0.1241 W/m/K
254.89 K, 5300 kPa | 0.1223 W/m/K
254.9 K, 20100 kPa | 0.128 W/m/K
255.08 K, 100 kPa | 0.1205 W/m/K
255.13 K, 10100 kPa | 0.1236 W/m/K
255.14 K, 5100 kPa | 0.1221 W/m/K
255.26 K, 100 kPa | 0.1199 W/m/K
255.58 K, 30100 kPa | 0.1315 W/m/K
255.61 K, 19900 kPa | 0.1285 W/m/K
274.6 K, 30000 kPa | 0.1274 W/m/K
274.72 K, 10100 kPa | 0.1177 W/m/K
274.86 K, 29900 kPa | 0.1269 W/m/K
274.89 K, 20000 kPa | 0.122 W/m/K
274.95 K, 5100 kPa | 0.1154 W/m/K
275 K, 100 kPa | 0.1129 W/m/K
275.02 K, 10000 kPa | 0.1178 W/m/K
275.17 K, 30100 kPa | 0.1271 W/m/K
275.19 K, 5000 kPa | 0.115 W/m/K
275.25 K, 10000 kPa | 0.1175 W/m/K
275.3 K, 100 kPa | 0.1135 W/m/K
275.51 K, 20100 kPa | 0.1218 W/m/K
275.6 K, 5000 kPa | 0.1152 W/m/K
275.91 K, 100 kPa | 0.1131 W/m/K
276.04 K, 20100 kPa | 0.1219 W/m/K
294.58 K, 100 kPa | 0.1073 W/m/K
294.64 K, 30100 kPa | 0.1197 W/m/K
294.65 K, 10000 kPa | 0.1118 W/m/K
294.95 K, 5000 kPa | 0.1089 W/m/K
294.98 K, 10000 kPa | 0.1115 W/m/K
295.03 K, 100 kPa | 0.1071 W/m/K
295.13 K, 20100 kPa | 0.1161 W/m/K
295.14 K, 30100 kPa | 0.1199 W/m/K
295.27 K, 30000 kPa | 0.1198 W/m/K
295.32 K, 10100 kPa | 0.1111 W/m/K
295.35 K, 5000 kPa | 0.1085 W/m/K
295.6 K, 20100 kPa | 0.116 W/m/K
295.7 K, 100 kPa | 0.1066 W/m/K
295.82 K, 5000 kPa | 0.1087 W/m/K
296.18 K, 20100 kPa | 0.1159 W/m/K
314.96 K, 30000 kPa | 0.1145 W/m/K
315.03 K, 5000 kPa | 0.1027 W/m/K
315.07 K, 20000 kPa | 0.1105 W/m/K
315.13 K, 100 kPa | 0.0993 W/m/K
315.24 K, 30000 kPa | 0.1144 W/m/K
315.26 K, 20000 kPa | 0.1099 W/m/K
315.35 K, 10000 kPa | 0.105 W/m/K
315.39 K, 5000 kPa | 0.1023 W/m/K
315.48 K, 100 kPa | 0.0996 W/m/K
315.71 K, 10000 kPa | 0.1054 W/m/K
315.73 K, 5100 kPa | 0.1027 W/m/K
315.76 K, 20000 kPa | 0.1104 W/m/K
315.88 K, 100 kPa | 0.0994 W/m/K
315.98 K, 30000 kPa | 0.1144 W/m/K
316.26 K, 10000 kPa | 0.105 W/m/K
334.99 K, 10100 kPa | 0.0998 W/m/K
335.01 K, 5400 kPa | 0.0959 W/m/K
335.11 K, 20000 kPa | 0.1038 W/m/K
335.23 K, 100 kPa | 0.0935 W/m/K
335.29 K, 29900 kPa | 0.1093 W/m/K
335.32 K, 10100 kPa | 0.0995 W/m/K
335.46 K, 100 kPa | 0.0932 W/m/K
335.51 K, 30200 kPa | 0.1094 W/m/K
335.68 K, 19700 kPa | 0.1043 W/m/K
335.72 K, 30000 kPa | 0.1096 W/m/K
335.84 K, 5000 kPa | 0.096 W/m/K
335.84 K, 10100 kPa | 0.0995 W/m/K
335.94 K, 100 kPa | 0.0931 W/m/K
336.31 K, 20100 kPa | 0.1042 W/m/K
336.37 K, 5200 kPa | 0.0959 W/m/K
354.72 K, 29900 kPa | 0.106 W/m/K and 0.1051 W/m/K
354.85 K, 19700 kPa | 0.1006 W/m/K
354.97 K, 5000 kPa | 0.0913 W/m/K
354.97 K, 19800 kPa | 0.1 W/m/K
355.23 K, 10100 kPa | 0.0944 W/m/K
355.29 K, 300 kPa | 0.0865 W/m/K
355.33 K, 10100 kPa | 0.0944 W/m/K
355.45 K, 5000 kPa | 0.0916 W/m/K
355.47 K, 20100 kPa | 0.1001 W/m/K
355.56 K, 5000 kPa | 0.091 W/m/K
355.66 K, 300 kPa | 0.0869 W/m/K
355.87 K, 10000 kPa | 0.094 W/m/K
356.04 K, 300 kPa | 0.0866 W/m/K
356.04 K, 29900 kPa | 0.1056 W/m/K
374.75 K, 30000 kPa | 0.1021 W/m/K
374.95 K, 29800 kPa | 0.1021 W/m/K
375.12 K, 20000 kPa | 0.0959 W/m/K
375.24 K, 400 kPa | 0.0813 W/m/K
375.25 K, 10000 kPa | 0.0893 W/m/K
375.4 K, 5100 kPa | 0.0858 W/m/K
375.47 K, 400 kPa | 0.0812 W/m/K
375.55 K, 30300 kPa | 0.1026 W/m/K
375.57 K, 20000 kPa | 0.0957 W/m/K
375.61 K, 10000 kPa | 0.0889 W/m/K
375.75 K, 5100 kPa | 0.0853 W/m/K
375.87 K, 400 kPa | 0.0816 W/m/K
376.05 K, 20000 kPa | 0.0955 W/m/K
376.23 K, 10000 kPa | 0.089 W/m/K
376.26 K, 5100 kPa | 0.0854 W/m/K
